According to BindingDB's records for doi:10.1016/j.ejmech.2020.112549 (Sichuan University, 2020):

What was measured:
[1] = Inhibition of reverse transcriptase L100I mutant in HIV-1 3B infected in human MT4 cells assessed as reduction in virus-induced cytopathic effect incubated for 5 days by MTT assay
[2] = Inhibition of reverse transcriptase K103N mutant in HIV-1 3B infected in human MT4 cells assessed as reduction in virus-induced cytopathic effect incubated for 5 days by MTT assay
[3] = Inhibition of reverse transcriptase Y181C mutant in HIV-1 3B infected in human MT4 cells assessed as reduction in virus-induced cytopathic effect incubated for 5 days by MTT assay
[4] = Inhibition of reverse transcriptase Y188L mutant in HIV-1 3B infected in human MT4 cells assessed as reduction in virus-induced cytopathic effect incubated for 5 days by MTT assay
[5] = Inhibition of reverse transcriptase E138K mutant in HIV-1 3B infected in human MT4 cells assessed as reduction in virus-induced cytopathic effect incubated for 5 days by MTT assay

| Structure (SMILES) | EC50 [1] [nM] | EC50 [2] [nM] | EC50 [3] [nM] | EC50 [4] [nM] | EC50 [5] [nM] |
| --- | --- | --- | --- | --- | --- |
| N#Cc1ccc(Nc2nccc(C(O)c3ccc(-c4ccc(C#N)cc4)cc3C(F)(F)F)n2)cc1 (configuration not stated) | 212 | 26 | 59 | 552 | 26 |
| COc1cc(-c2ccc(C#N)cc2)ccc1[C@@H](O)c1ccnc(Nc2ccc(C#N)cc2)n1 | 1250 | 438 | 507 |  | 196 |
| N#Cc1ccc(Nc2nccc([C@H](O)c3c(F)cc(-c4ccc(C#N)cc4)cc3F)n2)cc1 | 1430 | 364 | 432 | 5940 | 55 |
| N#Cc1ccc(Nc2nccc([C@@H](O)c3ccc(-c4ccc(C#N)cc4)cc3C(F)(F)F)n2)cc1 | 93 | 15 | 30 | 318 | 9.1 |
| Cc1cc(-c2ccc(C#N)cc2)ccc1[C@@H](O)c1ccnc(Nc2ccc(C#N)cc2)n1 | 2640 | 479 | 743 |  | 149 |
| COc1cc(-c2ccc(C#N)cc2)ccc1[C@H](O)c1ccnc(Nc2ccc(C#N)cc2)n1 | 67 | 6.7 | 15 | 88 |  |
| N#Cc1ccc(Nc2nccc(C(O)c3ccc(-c4ccc(C#N)cc4)cc3Cl)n2)cc1 (configuration not stated) | 91 | 5.9 | 14 | 297 | 7.3 |
| Cc1cc(-c2ccc(C#N)cc2)ccc1[C@H](O)c1ccnc(Nc2ccc(C#N)cc2)n1 | 81 | 8.6 | 19 | 264 | 5.5 |
| N#Cc1ccc(Nc2nccc([C@H](O)c3ccc(-c4ccc(C#N)cc4)cc3F)n2)cc1 | 3630 | 736 | 1160 | > 30000 | 164 |
| N#Cc1ccc(Nc2nccc([C@H](O)c3ccc(-c4ccc(C#N)cc4)cc3Cl)n2)cc1 | 1580 | 251 | 799 |  | 206 |
| N#Cc1ccc(Nc2nccc(C(O)c3c(F)cc(-c4ccc(C#N)cc4)cc3F)n2)cc1 (configuration not stated) | 410 | 61 | 125 | 3500 | 25 |
| N#Cc1ccc(Nc2nccc([C@@H](O)c3ccc(-c4ccc(C#N)cc4)cc3F)n2)cc1 | 380 | 50 | 78 |  | 9.3 |
| Cc1cc(-c2ccc(C#N)cc2)cc(C)c1[C@@H](O)c1ccnc(Nc2ccc(C#N)cc2)n1 | 165 | 21 | 46 | 2200 | 19 |
| Cc1cc(-c2ccc(C#N)cc2)ccc1C(O)c1ccnc(Nc2ccc(C#N)cc2)n1 (configuration not stated) | 184 | 18 | 31 | 623 | 9.8 |
| Cc1cc(-c2ccc(C#N)cc2)cc(C)c1[C@H](O)c1ccnc(Nc2ccc(C#N)cc2)n1 | 20 | 3.9 | 7.4 |  | 7.2 |
| N#Cc1ccc(Nc2nccc(C(O)c3ccc(-c4ccc(C#N)cc4)cc3F)n2)cc1 (configuration not stated) | 902 | 88 | 112 | 4180 | 29 |
| N#Cc1ccc(Nc2nccc([C@@H](O)c3ccc(-c4ccc(C#N)cc4)cc3Cl)n2)cc1 | 53 | 3.2 | 14 | 128 | 3 |
| Cc1cc(-c2ccc(C#N)cc2)cc(C)c1C(O)c1ccnc(Nc2ccc(C#N)cc2)n1 (configuration not stated) | 49 | 7 | 23 | 417 | 16 |
| N#Cc1ccc(Nc2nccc([C@@H](O)c3c(F)cc(-c4ccc(C#N)cc4)cc3F)n2)cc1 | 341 | 36 | 89 | 2250 | 8.4 |
| COc1cc(-c2ccc(C#N)cc2)ccc1C(O)c1ccnc(Nc2ccc(C#N)cc2)n1 (configuration not stated) | 113 |  | 32 |  | 7.4 |
| N#Cc1ccc(Nc2nccc([C@H](O)c3ccc(-c4ccc(C#N)cc4)cc3C(F)(F)F)n2)cc1 | 1740 | 1910 | 1820 | > 24100 | 933 |
